Test results as given in patent publication US12077503B2, “Substituted cyclic amides and their use as herbicides” (FMC CORPORATION, priority 2015, dated 2024).

How the values were obtained:
Assay type in all cases: in vivo
[1] = tested on: barnyardgrass (Echinochloa crus-galli); assay: Test G Pre-Emergence Protocol; conditions: Echinochloa crus-galli, pre-emergence, 312 h, evaluated after 13 days; for pest or weed control at 15.625 g/ha: 15.625 g ai/ha, read-out: Barnyard grass damage rating (100=total damage to plant; 0=no damage to plant); for pest or weed control at 62.5 g/ha: 62.5 g ai/ha, 100=total damage to plant, 0=no damage to plant, read-out: plant damage rating, Barnyardgrass; for pest or weed control at 250 g/ha: 250 g ai/ha, read-out: Barnyardgrass damage rating (100=total damage to plant; 0=no damage to plant)
Procedure, shortened: (§1)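 Seeds were sown in standard soil and kept one day in a glasshouse (24/16° C day/night, 14 h light, 65% humidity), then sprayed with compound in acetone/water (50:50) containing 0.5% Tween 20 at 15.625, 62.5 or 250 g/ha. Damage was scored after 13 days (0 = none, 100 = total).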

corn (Zea mays) [2] = assay: Test G Pre-Emergence Protocol; conditions: Zea mays, pre-emergence, 312 h, evaluated after 13 days; for plant injury at 15.625 g/ha: 15.625 g ai/ha; for plant injury at 15.625 g/ha / plant injury at 250 g/ha: read-out: Corn damage rating (100=total damage to plant; 0=no damage to plant); for plant injury at 62.5 g/ha: 62.5 g ai/ha, 100=total damage to plant, 0=no damage to plant, read-out: plant damage rating, Corn; for plant injury at 250 g/ha: 250 g ai/ha
Procedure, shortened: as §1

[3] = tested on: giant foxtail (Setaria faberi); assay: Test G Pre-Emergence Protocol; conditions: Setaria faberi, pre-emergence, 312 h, evaluated after 13 days; for pest or weed control at 15.625 g/ha: 15.625 g ai/ha; for pest or weed control at 15.625 g/ha / pest or weed control at 250 g/ha: read-out: Foxtail, Giant damage rating (100=total damage to plant; 0=no damage to plant); for pest or weed control at 62.5 g/ha: 62.5 g ai/ha, 100=total damage to plant, 0=no damage to plant, read-out: plant damage rating, Foxtail, Giant; for pest or weed control at 250 g/ha: 250 g ai/ha
Procedure, shortened: as §1

[4] = tested on: ivy-leaved morning glory (Ipomoea hederacea); assay: Test G Pre-Emergence Protocol; conditions: Ipomoea, pre-emergence, 312 h, evaluated after 13 days; for pest or weed control at 15.625 g/ha: 15.625 g ai/ha, read-out: Morning-glory, Ivy-leaved damage rating (100=total damage to plant; 0=no damage to plant); for pest or weed control at 62.5 g/ha: 62.5 g ai/ha, 100=total damage to plant, 0=no damage to plant, read-out: plant damage rating, Morningglory, Ivy-leaved; for pest or weed control at 250 g/ha: 250 g ai/ha, read-out: Morningglory, Ivy-leaved damage rating (100=total damage to plant; 0=no damage to plant)
Procedure, shortened: as §1

[5] = tested on: redroot pigweed (Amaranthus retroflexus); assay: Test G Pre-Emergence Protocol; conditions: Amaranthus retroflexus, pre-emergence, 312 h, evaluated after 13 days; for pest or weed control at 15.625 g/ha: 15.625 g ai/ha; for pest or weed control at 15.625 g/ha / pest or weed control at 250 g/ha: read-out: Pigweed, Redroot damage rating (100=total damage to plant; 0=no damage to plant); for pest or weed control at 62.5 g/ha: 62.5 g ai/ha, 100=total damage to plant, 0=no damage to plant, read-out: plant damage rating, Pigweed, Redroot; for pest or weed control at 250 g/ha: 250 g ai/ha
Procedure, shortened: as §1

[6] = tested on: velvetleaf (Abutilon theophrasti); assay: Test G Pre-Emergence Protocol; conditions: Abutilon theophrasti, pre-emergence, 312 h, evaluated after 13 days; for pest or weed control at 15.625 g/ha: 15.625 g ai/ha; for pest or weed control at 15.625 g/ha / pest or weed control at 250 g/ha: read-out: Velvetleaf damage rating (100=total damage to plant; 0=no damage to plant); for pest or weed control at 62.5 g/ha: 62.5 g ai/ha, 100=total damage to plant, 0=no damage to plant, read-out: plant damage rating, Velvetleaf; for pest or weed control at 250 g/ha: 250 g ai/ha
Procedure, shortened: as §1

[7] = tested on: barnyardgrass (Echinochloa crus-galli); assay: Test G Post-Emergence Protocol; conditions: Echinochloa crus-galli, post-emergence, 312 h; for pest or weed control at 15.625 g/ha: 15.625 g ai/ha, evaluated after 13 days (100=total damage to plant; 0=no damage to plant), read-out: Barnyardgrass damage rating; for pest or weed control at 62.5 g/ha: 62.5 g ai/ha, read-out: Barnyardgrass damage rating (100=total damage to plant; 0=no damage to plant); for pest or weed control at 62.5 g/ha / pest or weed control at 250 g/ha: evaluated after 13 days; for pest or weed control at 250 g/ha: 250 g ai/ha, read-out: damage to plant, Barnyardgrass (100=total damage to plant; 0=no damage to plant)
Procedure, shortened: (§2)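 A glasshouse post-emergence test: 8-day-old plants sprayed at 15.625, 62.5 or 250 g/ha, then grown at 24/16 °C day/night with 14 h light and 65% humidity. Damage rated 13 days later, 0–100.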

corn (Zea mays) [8] = assay: Test G Post-Emergence Protocol; conditions: Zea mays, post-emergence, 312 h; for plant injury at 15.625 g/ha: 15.625 g ai/ha, evaluated after 13 days (100=total damage to plant; 0=no damage to plant), read-out: Corn damage rating; for plant injury at 62.5 g/ha: 62.5 g ai/ha, read-out: Corn damage rating (100=total damage to plant; 0=no damage to plant); for plant injury at 62.5 g/ha / plant injury at 250 g/ha: evaluated after 13 days; for plant injury at 250 g/ha: 250 g ai/ha, read-out: damage to plant, Corn (100=total damage to plant; 0=no damage to plant)
Procedure, shortened: as §2

[9] = tested on: giant foxtail (Setaria faberi); assay: Test G Post-Emergence Protocol; conditions: Setaria faberi, post-emergence, 312 h; for pest or weed control at 15.625 g/ha: 15.625 g ai/ha, evaluated after 13 days (100=total damage to plant; 0=no damage to plant), read-out: Foxtail, Giant damage rating; for pest or weed control at 62.5 g/ha: 62.5 g ai/ha, read-out: Foxtail, Giant damage rating (100=total damage to plant; 0=no damage to plant); for pest or weed control at 62.5 g/ha / pest or weed control at 250 g/ha: evaluated after 13 days; for pest or weed control at 250 g/ha: 250 g ai/ha, read-out: damage to plant, Foxtail, Giant (100=total damage to plant; 0=no damage to plant)
Procedure, shortened: as §2

[10] = tested on: ivy-leaved morning glory (Ipomoea hederacea); assay: Test G Post-Emergence Protocol; conditions: Ipomoea, post-emergence, 312 h; for pest or weed control at 15.625 g/ha: 15.625 g ai/ha, evaluated after 13 days (100=total damage to plant; 0=no damage to plant), read-out: Morningglory, Ivy-leaved damage rating; for pest or weed control at 62.5 g/ha: 62.5 g ai/ha, read-out: Morningglory, Ivy-leaved damage rating (100=total damage to plant; 0=no damage to plant); for pest or weed control at 62.5 g/ha / pest or weed control at 250 g/ha: evaluated after 13 days; for pest or weed control at 250 g/ha: 250 g ai/ha, read-out: damage to plant, Morningglory, Ivy-leaved (100=total damage to plant; 0=no damage to plant)
Procedure, shortened: as §2

[11] = tested on: redroot pigweed (Amaranthus retroflexus); assay: Test G Post-Emergence Protocol; conditions: Amaranthus retroflexus, post-emergence, 312 h; for pest or weed control at 15.625 g/ha: 15.625 g ai/ha, evaluated after 13 days (100=total damage to plant; 0=no damage to plant), read-out: Pigweed, Redroot damage rating; for pest or weed control at 62.5 g/ha: 62.5 g ai/ha, read-out: Pigweed, Redroot damage rating (100=total damage to plant; 0=no damage to plant); for pest or weed control at 62.5 g/ha / pest or weed control at 250 g/ha: evaluated after 13 days; for pest or weed control at 250 g/ha: 250 g ai/ha, read-out: damage to plant, Pigweed, Redroot (100=total damage to plant; 0=no damage to plant)
Procedure, shortened: as §2

[12] = tested on: velvetleaf (Abutilon theophrasti); assay: Test G Post-Emergence Protocol; conditions: Abutilon theophrasti, post-emergence, 312 h; for pest or weed control at 15.625 g/ha: 15.625 g ai/ha, evaluated after 13 days (100=total damage to plant; 0=no damage to plant), read-out: Velvetleaf damage rating; for pest or weed control at 62.5 g/ha: 62.5 g ai/ha, read-out: Velvetleaf damage rating (100=total damage to plant; 0=no damage to plant); for pest or weed control at 62.5 g/ha / pest or weed control at 250 g/ha: evaluated after 13 days; for pest or weed control at 250 g/ha: 250 g ai/ha, read-out: damage to plant, Velvetleaf (100=total damage to plant; 0=no damage to plant)
Procedure, shortened: as §2

Work on `C=CCc1ccc(Cl)cc1NC(=O)[C@H]1C(=O)N(C)C[C@@H]1c1ccc(C(F)(F)F)cc1` (racemic) [Compound 1441] yielded a pest or weed control at 15.625 g/ha [1] of 0%, a pest or weed control at 62.5 g/ha [1] of 0% and a pest or weed control at 250 g/ha [1] of 0%. For the same molecule, the plant injury at 15.625 g/ha (corn (Zea mays) [2]) was 0%, the plant injury at 62.5 g/ha (corn (Zea mays) [2]) was 0% and the plant injury at 250 g/ha (corn (Zea mays) [2]) was 0%. The pest or weed control at 15.625 g/ha [3] was 0%, the pest or weed control at 62.5 g/ha [3] was 0% and the pest or weed control at 250 g/ha [3] was 0%. For the same molecule, the pest or weed control at 15.625 g/ha [4] was 0%, the pest or weed control at 62.5 g/ha [4] was 0% and the pest or weed control at 250 g/ha [4] was 0%. For the same molecule, the pest or weed control at 15.625 g/ha [5] was 0%, the pest or weed control at 62.5 g/ha [5] was 0% and the pest or weed control at 250 g/ha [5] was 0%. The pest or weed control at 15.625 g/ha [6] was 0%, the pest or weed control at 62.5 g/ha [6] was 0% and the pest or weed control at 250 g/ha [6] was 0%. The pest or weed control at 15.625 g/ha [7] was 0%, the pest or weed control at 62.5 g/ha [7] was 0% and the pest or weed control at 250 g/ha [7] was 0%. It also gave a plant injury at 15.625 g/ha (corn (Zea mays) [8]) of 0%, a plant injury at 62.5 g/ha (corn (Zea mays) [8]) of 0% and a plant injury at 250 g/ha (corn (Zea mays) [8]) of 20%. For the same molecule, the pest or weed control at 15.625 g/ha [9] was 0%, the pest or weed control at 62.5 g/ha [9] was 0% and the pest or weed control at 250 g/ha [9] was 20%. The pest or weed control at 15.625 g/ha [10] was 0%, the pest or weed control at 62.5 g/ha [10] was 0% and the pest or weed control at 250 g/ha [10] was 0%. The pest or weed control at 15.625 g/ha [11] was 0%, the pest or weed control at 62.5 g/ha [11] was 0% and the pest or weed control at 250 g/ha [11] was 0%. For the same molecule, the pest or weed control at 15.625 g/ha [12] was 0%, the pest or weed control at 62.5 g/ha [12] was 0% and the pest or weed control at 250 g/ha [12] was 0%.
Molecule `COc1cccc(NC(=O)[C@H]2C(=O)N(C)C[C@@H]2c2ccc(C(F)(F)F)cc2)c1C` (racemic) [Compound 1446] has a pest or weed control at 15.625 g/ha [1] of 0%, a pest or weed control at 62.5 g/ha [1] of 0% and a pest or weed control at 250 g/ha [1] of 0%. The plant injury at 15.625 g/ha (corn (Zea mays) [2]) was 0%, the plant injury at 62.5 g/ha (corn (Zea mays) [2]) was 0% and the plant injury at 250 g/ha (corn (Zea mays) [2]) was 0%. The pest or weed control at 15.625 g/ha [3] was 0%, the pest or weed control at 62.5 g/ha [3] was 0% and the pest or weed control at 250 g/ha [3] was 40%. For the same molecule, the pest or weed control at 15.625 g/ha [4] was 0%, the pest or weed control at 62.5 g/ha [4] was 0% and the pest or weed control at 250 g/ha [4] was 0%. For the same molecule, the pest or weed control at 15.625 g/ha [5] was 0%, the pest or weed control at 62.5 g/ha [5] was 0% and the pest or weed control at 250 g/ha [5] was 0%. The pest or weed control at 15.625 g/ha [6] was 0%, the pest or weed control at 62.5 g/ha [6] was 0% and the pest or weed control at 250 g/ha [6] was 0%. For the same molecule, the pest or weed control at 15.625 g/ha [7] was 0%, the pest or weed control at 62.5 g/ha [7] was 0% and the pest or weed control at 250 g/ha [7] was 0%. For the same molecule, the plant injury at 15.625 g/ha (corn (Zea mays) [8]) was 0%, the plant injury at 62.5 g/ha (corn (Zea mays) [8]) was 0% and the plant injury at 250 g/ha (corn (Zea mays) [8]) was 0%. The pest or weed control at 15.625 g/ha [9] was 0%, the pest or weed control at 62.5 g/ha [9] was 0% and the pest or weed control at 250 g/ha [9] was 0%. It also gave a pest or weed control at 15.625 g/ha [10] of 0%, a pest or weed control at 62.5 g/ha [10] of 0% and a pest or weed control at 250 g/ha [10] of 0%. It also gave a pest or weed control at 15.625 g/ha [11] of 0%, a pest or weed control at 62.5 g/ha [11] of 0% and a pest or weed control at 250 g/ha [11] of 0%. It also gave a pest or weed control at 15.625 g/ha [12] of 0%, a pest or weed control at 62.5 g/ha [12] of 0% and a pest or weed control at 250 g/ha [12] of 0%.
